# Reference: patent US20230114241A1, “METHODS OF TREATING EPILEPSY USING THE SAME” (Trevena, Inc., priority 2019, published 2023)
# What was measured:
# [1] = molecular target: T1, human sphingosine-1-phosphate receptor 1 (S1P1) (Homo sapiens, UniProt P21453); test: Inhibition of cAMP production (HTRF cAMP HiRange), S1P1 CHO-K1 cells; assay type: cell-based; conditions: for Emax: CHO-K1, efficacy normalized to maximum efficacy of fingolimod, read-out: hS1P1 CAMP SPAN; for EC50: read-out: hS1P1 CAMP pEC50 (converted)
# Procedure, shortened: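 Intracellular cAMP changes read by TR-FRET (HTRF HiRange, 1 h room temperature) after 30 min compound exposure at 37 °C. Cells: overnight-plated CHO-K1 stably expressing tagged human S1P1 with EA-β-arrestin2. Responses normalized to fingolimod.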
# Target sequence in this assay (P21453 whole entry): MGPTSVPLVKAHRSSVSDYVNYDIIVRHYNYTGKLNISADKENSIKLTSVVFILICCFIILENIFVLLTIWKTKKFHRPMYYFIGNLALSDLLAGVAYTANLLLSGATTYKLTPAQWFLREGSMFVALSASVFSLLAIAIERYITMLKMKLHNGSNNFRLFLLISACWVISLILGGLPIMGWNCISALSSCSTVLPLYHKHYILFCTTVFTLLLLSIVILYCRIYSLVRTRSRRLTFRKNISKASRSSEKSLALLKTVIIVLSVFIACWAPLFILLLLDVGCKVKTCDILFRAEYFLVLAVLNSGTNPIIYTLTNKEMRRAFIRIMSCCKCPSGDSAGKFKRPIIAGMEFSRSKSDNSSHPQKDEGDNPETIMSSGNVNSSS
# [2] = molecular target: T1, human sphingosine-1-phosphate receptor 1 (S1P1); test: β-Arrestin2 recruitment assay (PathHunter), S1P1 CHO-K1 cells; assay type: cell-based; conditions: for Emax: efficacy normalized to maximum efficacy of fingolimod, read-out: hS1P1 B-arrestin2 SPAN; for EC50: β-arrestin2 recruitment, read-out: hS1P1 B-arrestin2 pEC50 (converted)
# Experimental: Stable clonal Chinese hamster ovary K1 (CHO-K1) cells co-expressing EA-β-arrestin2 and the human sphingosine-1-phosphate receptor 1 (NM_001400, S1P1) with a C-terminal Prolink™ tag were purchased from DiscoverX corporation (Cat #: 93-0207C2).
# Cell lines were cultured in AssayComplete™ Media 6 (DiscoverX Corporation, Cat #: 920018GF2) at 37° C. and 5% CO2 in a humidified CO2 and temperature-controlled incubator. To begin assay plating, cells were washed with Dulbecco's phosphate buffered saline (CellGro, Cat #: 21-031-CV) and lifted from the culturing flask by incubation (37° C., 5 min) with CellStripper (Cellgro, Cat #: 25-056-CI). […] Plated cells were incubated overnight at 37° C. and 5% CO2 in a humidified CO2 and temperature-controlled incubator.
# Agonist-promoted β-arrestin2 recruitment to the sphingosine-1-phosphate 1 receptor was determined using the β-arrestin PathHunter® Detection kit (DiscoverX Corporation, Cat #: 93-0001). […] In cells that stably express these fusion proteins, stimulation with a cognate agonist results in the interaction of β-arrestin2 and the Prolink™-tagged GPCR. This allows the complementation of the two β-galactosidase fragments and results in the formation of a functional enzyme with β-galactosidase activity. […] Following a 60 minute incubation at 37° C. and 5% CO2 in a humidified CO2 and temperature-controlled incubator, the components of the β-arrestin PathHunter® Detection kit were added as per the manufacturer's instructions. After an hour incubation at room temperature, plates were analyzed by a BMG PheraStar microplate reader.
# These values are normalized to fingolimod, a known agonist of the sphingosine-1-phosphate 1 receptor.
# Target sequence in this assay (P21453 whole entry): as above
# Target sequence in this assay (P32121 whole entry partner): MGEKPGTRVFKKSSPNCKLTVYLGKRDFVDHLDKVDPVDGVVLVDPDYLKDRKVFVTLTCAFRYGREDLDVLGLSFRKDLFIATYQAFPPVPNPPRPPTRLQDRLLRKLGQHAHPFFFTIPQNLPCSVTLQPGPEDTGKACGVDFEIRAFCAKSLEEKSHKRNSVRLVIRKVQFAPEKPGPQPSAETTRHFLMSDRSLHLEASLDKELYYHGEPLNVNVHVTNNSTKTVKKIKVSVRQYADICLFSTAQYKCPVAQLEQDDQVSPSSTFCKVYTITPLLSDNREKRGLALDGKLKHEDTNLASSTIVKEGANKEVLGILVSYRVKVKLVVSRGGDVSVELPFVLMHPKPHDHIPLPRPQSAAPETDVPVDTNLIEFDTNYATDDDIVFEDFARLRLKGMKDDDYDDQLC
# [3] = inhibition of cAMP production, potency
# [4] = CHO-K1, β-arrestin2 recruitment
# [5] = inhibition of cAMP production, S1P1
Compound,"EC50 [1, 3] [nM]","EC50 [1, 5] [nM]",also measured
"O=C1CC2(CCC(F)(F)CC2)Oc2ccc(-c3nc(-c4ccncc4)no3)cc21 [Compound 217, 4′,4′-difluoro-6-[3-(pyridin-4-yl)-1,2,4-oxadiazol-5-yl]-3,4-dihydrospiro[1-benzopyran-2,1′-cyclohexane]-4-one]",> 316,–,"Emax ([1]; inhibition of cAMP production): < 75%; Emax [2, 4]: < 75%; EC50 ([2]; potency): > 10000 nM"
"Cc1ccccc1-c1noc(-c2ccc3c(c2)CCC(=O)N3)n1 [Compound 365, 6-[3-(2-methylphenyl)-1,2,4-oxadiazol-5-yl]-1,2,3,4-tetrahydroquinolin-2-one]",> 316,–,"Emax ([1]; inhibition of cAMP production): > 75%; Emax [2, 4]: < 75%; EC50 ([2]; potency): < 10000 nM"
"O=C1CCc2cc(-c3nc(-c4cccnc4)no3)ccc2N1 [Compound 386, 6-[3-(pyridin-3-yl)-1,2,4-oxadiazol-5-yl]-1,2,3,4-tetrahydro-quinolin-2-one]",–,> 316,Emax [1]: > 75%; Emax ([2]; CHO-K1): < 75%; EC50 ([2]; S1P1): > 10000 nM
"CC(C)Nc1ccc(-c2nnc(-c3ccc4c(c3)ncn4CCO)o2)cc1C#N [Compound 574, 5-{5-[1-(2-hydroxy-ethyl)-1H-1,3-benzodiazol-5-yl]-1,3,4-oxadiazol-2-yl}-2-[(propan-2-yl)amino]benzonitrile]",–,> 316,Emax [1]: > 75%; Emax ([2]; CHO-K1): > 75%; EC50 ([2]; S1P1): > 10000 nM
"CC(C)Nc1ccc(-c2nnc(-c3ccc4[nH]c(=O)oc4c3)o2)cc1C#N [Compound 484, 5-[5-(2-oxo-2,3-dihydro-1,3-benzoxazol-6-yl)-1,3,4-oxadiazol-2-yl]-2-[(propan-2-yl)amino]benzonitrile]",–,< 316,Emax [1]: > 75%; Emax ([2]; CHO-K1): > 75%; EC50 ([2]; S1P1): < 10000 nM
"Cc1ccccc1-c1csc(-c2cnc3c(ccn3C(C)C)c2)n1 [Compound 407, 2-(1-isopropyl-pyrrolo[2,3-b]pyridin-5-yl)-4-(o-tolyl)thiazole]",–,> 316,Emax [1]: > 75%; Emax ([2]; CHO-K1): < 75%; EC50 ([2]; S1P1): > 10000 nM
"CCC1(CC)CC(=O)c2cc(-c3nc(-c4ccc(C(=O)N(C)C)cc4)no3)ccc2O1 [Compound 151, 4-(5-(2,2-diethyl-4-oxochroman-6-yl)-1,2,4-oxadiazol-3-yl)-N,N-dimethylbenzamide]",> 316,–,"Emax ([1]; inhibition of cAMP production): > 75%; Emax [2, 4]: > 75%; EC50 ([2]; potency): > 10000 nM"
"CCn1nnc2cc(-c3noc(-c4ccccc4Br)n3)ccc21 [Compound 2, 5-(2-bromophenyl)-3-(1-ethyl-1H-benzo[d][1,2,3]triazol-5-yl)-1,2,4-oxadiazole]",–,–,EC50 ([2]; potency): < 10000 nM
"CC(C)(O)Cn1nnc2cc(-c3nc(-c4cocn4)no3)ccc21 [Compound 570, 2-methyl-1-{5-[3-(1,3-oxazol-4-yl)-1,2,4-oxadiazol-5-yl]-1H-1,2,3-benzotriazol-1-yl}propan-2-ol]",–,> 316,–
"COc1cnccc1-c1nc(-c2ccc3c(c2)nnn3C(C)C)no1 [Compound 606, 3-(1-isopropyl-1H-benzo[d][1,2,3]triazol-5-yl)-5-(3-methoxy-pyridin-4-yl)-1,2,4-oxadiazole]",–,< 316,–
"CC(C)n1nnc2cc(-c3nc4c(o3)COc3ccccc3-4)ccc21 [Compound 462, 5-{4H-chromeno[4,3-d][1,3]oxazol-2-yl}-1-(propan-2-yl)-1H-1,2,3-benzotriazole]",–,< 316,–
"Cc1ccccc1-c1noc(-c2ccc3c(cnn3C(C)C)c2)n1 [Compound 329, 5-(1-isopropyl-1H-indazol-5-yl)-3-(o-tolyl)-1,2,4-oxadiazole]",< 316,–,–
"Cc1ccccc1-c1cnc(-c2ccc3c(c2)nnn3C(C)C)s1 [Compound 216, 2-(1-isopropyl-benzotriazol-5-yl)-5-(o-tolyl)thiazole]",> 316,–,–
"CC(C)n1nnc2cc(-c3nc(-c4cccs4)co3)ccc21 [Compound 459, 1-(propan-2-yl)-5-[4-(thiophen-2-yl)-1,3-oxazol-2-yl]-1H-1,2,3-benzotriazole]",–,> 316,–
"CC(C)n1nnc2cc(-c3noc(-c4ccc(C5CCCCC5)cc4)n3)ccc21 [Compound 290, 5-(4-cyclohexylphenyl)-3-(1-isopropyl-1H-benzo[d][1,2,3]triazol-5-yl)-1,2,4-oxadiazole]",> 316,–,–
"Brc1ccccc1-c1noc(-c2ccc3c(c2)nnn3C2CC2)n1 [Compound 83, 5-[3-(2-bromophenyl)-1,2,4-oxadiazol-5-yl]-1-cyclopropyl-1H-1,2,3-benzotriazole]",< 316,–,–

Compound,"EC50 [1, 3] [nM]","EC50 [1, 5] [nM]",also measured
"O=C1CC2(CCC(F)(F)CC2)Oc2ccc(-c3nc(-c4cccnc4)no3)cc21 [Compound 36, 4′,4′-difluoro-6-[3-(pyridin-3-yl)-1,2,4-oxadiazol-5-yl]-3,4-dihydrospiro[1-benzo-pyran-2,1′-cyclohexane]-4-one]",> 316,–,–
"CC(C)n1ccc2cc(-c3nc(-c4ccccc4F)cs3)ccc21 [Compound 403, 4-(2-fluorophenyl)-2-(1-isopropylindol-5-yl)thiazole]",–,> 316,–
"CCC1(CC)CC(=O)c2cc(-c3nc(-c4ccncc4O)no3)ccc2O1 [Compound 312, 2,2-diethyl-6-(3-(3-hydroxypyridin-4-yl)-1,2,4-oxadiazol-5-yl)chroman-4-one]",> 316,–,–
"CC(C)n1nnc2cc(-c3nc4c(o3)CCc3sccc3-4)ccc21 [Compound 456, 4-[1-(propan-2-yl)-1H-1,2,3-benzotriazol-5-yl]-5-oxa-10-thia-3-azatricyclo[7.3.0.0^2,6] dodeca-1(9),2(6),3,11-tetraene]",–,< 316,–
"COc1ccc(-c2nc(-c3ccc4c(c3)nnn4C(C)C)no2)c(C)c1 [Compound 90, 3-(1-isopropyl-1H-benzo[d][1,2,3]triazol-5-yl)-5-(4-methoxy-2-methylphenyl)-1,2,4-oxadiazole]",> 316,–,–
"Cc1cccc(C)c1-c1noc(-c2ccc3c(c2)nnn3C(C)C)n1 [Compound 243, 3-(2,6-dimethyl-phenyl)-5-(1-isopropyl-1H-benzo[d][1,2,3]triazol-5-yl)-1,2,4-oxadiazole]",> 316,–,–
"COc1ccccc1-c1nc(-c2ccc3c(c2)nnn3C2CCCC2)no1 [Compound 120, 3-(1-cyclopentyl-1H-benzo[d][1,2,3]triazol-5-yl)-5-(2-methoxyphenyl)-1,2,4-oxadiazole]",< 316,–,–
"CC(C)n1nnc2cc(-c3nc(-c4ccccc4N)co3)ccc21 [Compound 438, 2-{2-[1-(propan-2-yl)-1H-1,2,3-benzotriazol-5-yl]-1,3-oxazol-4-yl}aniline]",–,< 316,–
"CCC1(CC)CC(=O)c2cc(-c3nc(-c4ccc(Cl)cc4)no3)ccc2O1 [Compound 68, 6-[3-(4-chlorophenyl)-1,2,4-oxadiazol-5-yl]-2,2-diethyl-chroman-4-one]",> 316,–,–
"CCC1(CC)CC(=O)c2cc(-c3nc(-c4ccccc4C)no3)ccc2O1 [Compound 66, 2,2-diethyl-6-(3-(o-tolyl)-1,2,4-oxadiazol-5-yl)chroman-4-one]",< 316,–,–
"COc1ccccc1-c1nnc(-c2ccc3[nH]c(=O)oc3c2)o1 [Compound 349, 6-[5-(2-methoxyphenyl)-1,3,4-oxadiazol-2-yl]-2,3-dihydro-1,3-benzoxazol-2-one]",< 316,–,–
"Cc1ccsc1-c1nc(-c2ccc3c(c2)nnn3C(C)(C)CO)no1 [Compound 611, 2-methyl-2-(5-(5-(3-methylthiophen-2-yl)-1,2,4-oxadiazol-3-yl)-1H-benzo[d] [1,2,3]triazol-1-yl)propan-1-ol]",–,< 316,–
"COc1cccc(OC)c1-c1noc(-c2ccc3c(c2)nnn3C(C)C)n1 [Compound 251, 3-(2,6-dimethoxy-phenyl)-5-(1-isopropyl-benzotriazol-5-yl)-1,2,4-oxadiazole]",> 316,–,–
"COc1ccc(-c2noc(-c3ccc4c(c3)nnn4C3CCCC3)n2)cc1C(F)(F)F [Compound 197, 1-cyclopentyl-5-{3-[4-methoxy-3-(trifluoromethyl)phenyl]-1,2,4-oxadiazol-5-yl}-1H-1,2,3-benzotriazole]",> 316,–,–
"C=CCNc1ccc(-c2ccc(-c3ccc4c(c3)nnn4C(C)C)cc2)cc1C#N [Compound 508, 4-(allylamino)-4′-(1-isopropyl-1H-benzo[d][1,2,3]triazol-5-yl)-[1,1′-biphenyl]-3-carbonitrile]",–,> 316,–
